# Experimental data: ChEMBL document CHEMBL5046276 (J Med Chem, 2022)
# pIC50: −log10 of the molar value. The source made the active and inactive calls. The calls are words filed in the database; no cut-off is given here.
# What was measured:
# [1] = system: Plasmodium falciparum; assay: In vivo inhibition of C-terminal glmS fused HDAC2 in Plasmodium falcipuram 3D7 assessed as inhibition of parasite growth incubated for 4 hrs followed by compound washout and replacement with fresh medium with compounds measured after 68 hrs by SYBR Green I staining based fluorescence analysis; format: functional, organism-based
# [2] = system: Plasmodium yoelii; assay: Antimalarial activity against blood stage Plasmodium yoelii infected in BALB/c mouse assessed as parasite recrudescence by measuring parasitemia at 60 mg/kg, ip qd for 5 days and measured on 11 to 15 days; format: functional; details: time 11-15 day
# [3] = system: Plasmodium falciparum; assay: Antimalarial activity against ART-resistant Plasmodium falcipuram 6320 harbouring C580Y mutant infected in human RBC assessed as reduction in parasitemia in blood smear by measuring parasite survival ratio at ring stage at upto 700 nM incubated for 6 hrs followed by compound washout and replacement with fresh medium without compounds and measured after 66 hrs by ring stage survival assay; format: functional; details: dose nM <=700, time 6.0 hrs
# [4] = system: Plasmodium falciparum; assay: Antimalarial activity against synchronized Plasmodium falcipuram 3D7 infected in human RBC assessed as fold reduction in reinvasion of ring stage parasites at 40 nM incubated for 12 hrs followed by compound washout and replacement with fresh medium without compounds and measured at 50 hrs post infection by flow cytometry; format: functional
# [5] = Selectivity index, ratio of IC50 for cytotoxicity against human HepG2 cells to IC50 for antimalarial activity against asexual blood stage wild-type Plasmodium falciparum 3D7; format: toxicity, cell-based; details: read-out: Ratio IC50
# [6] = system: Plasmodium yoelii; assay: Antimalarial activity against blood stage Plasmodium yoelii infected in BALB/c mouse assessed as inhibition of parasitemia at 60 mg/kg, ip qd for 5 days and measured after 30 days; format: functional, organism-based; details: time 30.0 day
# [7] = Toxicity in BALB/c mouse infected with blood stage Plasmodium yoelii assessed as body weight loss at 30 to 90 mg/kg, ip qd for 5 days and measured upto 60 days; format: organism-based; details: in vivo, dose 30-90 mg/kg, time <=60 day
# [8] = system: Plasmodium falciparum; assay: In vivo inhibition of C-terminal TY1 fused HDAC2 in Plasmodium falcipuram 3D7 assessed as inhibition of parasite growth incubated for 4 hrs followed by compound washout and replacement with fresh medium with compounds measured after 68 hrs by SYBR Green I staining based fluorescence analysis; format: functional, organism-based
# [9] = target: Histone deacetylase 3 (Homo sapiens, UniProt O15379); assay: Inhibition of human C-terminal His tagged HDAC3 (1 to 428 residues) expressed in baculovirus-infected Sf9 cells using Ac-peptide as substrate incubated for 4 hrs
# [10] = Metabolic stability in mouse liver microsomes assessed as half life at […] incubated for 45 mins in presence of NADPH by LC/MS analysis; format: ADME, Microsome; details: liver microsomes
# [11] = target: T1, NAD-dependent protein deacetylase sirtuin-2 (Homo sapiens, UniProt Q8IXJ6); assay: Inhibition of human C-terminal His-tagged SIRT2 (50 to 356 residues) expressed in Escherichia coli using Ac-peptide as substrate incubated for 4 hrs followed by trypsin addition and further incubated for 2 hrs
# T1 sequence (Q8IXJ6 whole entry): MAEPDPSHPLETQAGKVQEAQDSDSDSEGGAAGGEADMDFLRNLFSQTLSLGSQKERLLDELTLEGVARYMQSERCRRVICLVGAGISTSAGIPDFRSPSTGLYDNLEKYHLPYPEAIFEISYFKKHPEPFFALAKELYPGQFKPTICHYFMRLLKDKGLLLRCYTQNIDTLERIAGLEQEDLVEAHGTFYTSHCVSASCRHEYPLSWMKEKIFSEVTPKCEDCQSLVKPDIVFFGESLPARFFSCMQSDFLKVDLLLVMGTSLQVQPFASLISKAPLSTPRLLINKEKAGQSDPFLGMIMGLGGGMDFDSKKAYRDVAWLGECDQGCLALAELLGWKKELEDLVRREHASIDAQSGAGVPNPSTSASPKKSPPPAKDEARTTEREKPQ
# [12] = Drug concentration in BALB/c mouse plasma at 5 mg/kg, ip measured upto 24 hrs by LC-MS/MS analysis; format: ADME, organism-based
# [13] = Toxicity in BALB/c mouse infected with blood stage Plasmodium yoelii assessed as animal death at 60 mg/kg, ip qd for 5 days measured from day 2 post compound treatment; format: organism-based; details: in vivo, 120 h, time 5 day
# [14] = system: Plasmodium falciparum; assay: Antimalarial activity against synchronized Plasmodium falcipuram 3D7 infected in human RBC assessed as irreversible inhibition of parasite growth at trophozoite stage at 40 nM treated at 17 to 29 hpi incubated for 12 hrs followed by compound washout and replacement with fresh medium without compounds and measured after 4 days by flow cytometry; format: functional, organism-based
# [15] = AUC (0 to last) in BALB/c mouse at 5 mg/kg, ip measured after upto 24 hrs by LC-MS/MS analysis; format: ADME, organism-based; design: route intraperitoneal, dose 5 mg/kg, time <=24; details: in vivo
# [16] = system: Plasmodium falciparum; assay: Inhibition of Plasmodium falcipuram HDAC assessed as effect on parasite histone deacetylation level at 5 to 20 nM incubated for 4 hrs by Western blot analysis; details: dose 5-20 nM
# [17] = Selectivity index, ratio of IC50 for cytotoxicity against HEK293T cells to IC50 for antimalarial activity against asexual blood stage wild-type Plasmodium falciparum 3D7; format: toxicity, cell-based; details: human, read-out: Ratio IC50
# [18] = Toxicity in BALB/c mouse infected with liver stage transgenic Plasmodium berghei ANKA sporozoites transfected with GFP-Luc assessed as animal death at 30 mg/kg, iv measured on day 4 post-administration; format: organism-based; details: in vivo, 96 h, time 4 day
# Sequence of Histone deacetylase 3 (O15379 whole entry, the tested form may be a part): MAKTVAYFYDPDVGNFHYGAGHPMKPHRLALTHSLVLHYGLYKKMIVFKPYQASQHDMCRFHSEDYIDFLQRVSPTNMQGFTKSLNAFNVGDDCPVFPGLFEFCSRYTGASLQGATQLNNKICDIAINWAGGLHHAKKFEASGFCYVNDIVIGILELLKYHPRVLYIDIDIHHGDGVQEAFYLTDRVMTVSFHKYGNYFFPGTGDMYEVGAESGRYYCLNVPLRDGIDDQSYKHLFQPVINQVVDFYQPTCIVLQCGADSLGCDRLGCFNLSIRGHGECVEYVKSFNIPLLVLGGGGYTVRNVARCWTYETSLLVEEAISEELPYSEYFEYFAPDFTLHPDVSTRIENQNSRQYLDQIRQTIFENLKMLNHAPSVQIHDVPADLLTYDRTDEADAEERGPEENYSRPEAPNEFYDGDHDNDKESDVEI
smiles,measurement,setting,value
Cl.Cn1cc(CN2CC3(CCN(c4ncc(C(=O)NO)cn4)C3)C2)c2ccc(C#N)cc21,inhibition,[1],Active
same,Activity,[2],0.01%
same,Activity,[3],Active
same,fold change (FC),[4],10
same,selectivity ratio,[5],810
same,Activity,[6],Active
same,Activity,[7],Non-Toxic
same,inhibition,[8],Active
same,pIC50,[9],8.28
same,half-life,[10],1.34 h
same,pIC50,[11],< 5.00
same,concentration at 24 h,[12],89 ng/mL
same,Activity,[13],Non-Toxic
same,Activity,[14],Active
same,AUC(0-t) at 24 h,[15],638 ng·h/mL
same,Activity,[16],Active
same,selectivity ratio,[17],960
same,Activity,[18],Non-Toxic
